From BindingDB's records for doi:10.1016/j.bmcl.2003.10.023 (Boehringer Ingelheim (Canada), 2003) come the findings set out here.

A short description of this test: Inhibitory activity against calf thymus RNA polymerase.
`O=C(O)c1ccc2c(c1)nc(-c1ncc[nH]1)n2C1CCCCC1` [1-Cyclohexyl-2-(1H-imidazol-2-yl)-1H-benzoimidazole-5-carboxylic acid] came in with an IC50 of over 500 µM. For `O=C(O)c1ccc2c(c1)nc(-c1ccc[nH]1)n2C1CCCCC1` [1-Cyclohexyl-2-(1H-pyrrol-2-yl)-1H-benzoimidazole-5-carboxylic acid], the IC50 was over 500 µM. For the molecule `O=C(O)c1ccc2c(c1)nc(-c1ccco1)n2C1CCCCC1` [1-Cyclohexyl-2-furan-2-yl-1H-benzoimidazole-5-carboxylic acid], the IC50 is over 500 µM. Molecule `O=C(O)c1ccc2c(c1)nc(-c1nccs1)n2C1CCCCC1` [1-Cyclohexyl-2-thiazol-2-yl-1H-benzoimidazole-5-carboxylic acid] had an IC50 of over 500 µM. For `O=C(O)c1ccc2c(c1)nc(-c1cccs1)n2C1CCCCC1` [1-Cyclohexyl-2-thiophen-2-yl-1H-benzoimidazole-5-carboxylic acid], the IC50 is over 500 µM. In turn, `O=C(O)c1ccc2c(c1)nc(-c1ccsc1)n2C1CCCCC1` [1-Cyclohexyl-2-thiophen-3-yl-1H-benzoimidazole-5-carboxylic acid] returned an IC50 of over 500 µM. Molecule `O=C(O)c1ccc2c(c1)nc(-c1ccccc1)n2C1CCCCC1` [1-cyclohexyl-2-phenyl-1H-benzo[d]imidazole-5-carboxylic acid] came in with an IC50 of over 500 µM.

For orientation: IC50 means the concentration that inhibits the measured activity by half.
